How the values were obtained:
Assay type in all cases: cell-based
anaerobes = assay: Kill study: ATP test of anaerobically captured oil field influent water (LuminUltra QUO-M kit); set-up: ATP readings: unit not given here
Description: In an oil and gas field in the western USA, MCA was tested in comparison with methylene bis(thiocyanate), (MTC) in a weekly batch treatment and is fed for 2-3 hours at 200 ppm (as product).
A solution of MCA Working Solution was prepared using Busan 1474 and Bulab 6004 (high alkalinity bleach). The reaction of these two components diluted in water at the proper equimolar ratios and proper pH produces a stable high concentration of biocide. A known concentration of MCA was added to a specific volume of influent water which had to be captured under anaerobic conditions and kept in an incubation chamber when not being used because the primary organisms of interest (anaerobes) are very susceptible to both oxygen and temperature changes. Therefore, as soon as the samples were collected, the head space of the bottles were purged with Nitrogen and then sealed with a rubber stopper (which will permit the insertion of a hypodermic needle) and then crimped into place with an aluminium seal.
Owing to the fact that there is significant oil in the water, the organisms are coated with a fine layer of organic material, thus necessitating the usage of an ATP test kit which washes away the layer of oil prior to ATP testing. The kit employed for this testing is manufactured by LuminUltra and is identified as the Quench Gone Organic-Modified (QUO-M) test kit.
Furthermore, in order to ensure that adequate MCA was present to penetrate this oil layer (and have an apples to apples comparison in performance), the MCA was dosed at the same level as the MTC at a concentration of 200 ppm.
The MCA was tested at intervals between this period (30, 60, 180, and 240 minutes).
Bottles were collected and the initial concentration of ATP for each bottle was measured and then dosed with 200 ppm of MCA and MTC respectively and one bottle was not dosed to serve as a growth control.

[1] = tested on: total biological organism concentration; assay: ATP test of biocides in produced water from oil field water/oil/gas separator (LuminUltra QBG kit)
Description: A one-liter sample of water was obtained from the mechanical water/oil/gas separator from a producing oil field in the western USA. The one liter sample was separated into four aliquots, one control and three test samples.
Adenosine triphosphate (ATP) is the energy source for all living organisms. Measurement of the ATP concentration in a water sample gives a good indication of the concentration of total biological organism concentration. A number of different companies including 3M and LuminUltra manufacture test kits. For this testing, the LuminUltra QBG test kit was employed.
Each of the non-control samples were dosed with one of three different biocides: MTC-10 (a 10% solution of methylenebis(thiocyanate) at 22 ppm active concentration; Diald 25 (a 25% solution of Glutaraldehyde) at 50 ppm active; and monochloramine (MCA) at a concentration of 7.5 ppm. After 30 and 60 minutes of exposure, ATP levels were measured and recorded.

[2] = Previous testing of kill time and cell penetration
Description: Previous testing had shown that the MCA was killing in 20 minutes what it took other biocides (i.e. MTC and Glutaraldehyde) to accomplish in four hours.

[3] = 0 min, initial reading of the bottle before dosing at 200 ppm
[4] = 180 min after dosing at 200 ppm
[5] = 240 min after dosing at 200 ppm

SMILES	ATP readings (anaerobes; [3])	Percent reduction in ATP level (percent kill) (anaerobes; 30 min, 200 ppm)	ATP readings (anaerobes; 30 min after dosing at 200 ppm)	Percent reduction in ATP level (percent kill) (anaerobes; 60 min, 200 ppm)	ATP readings (anaerobes; 60 min after dosing at 200 ppm)	Percent reduction in ATP level (percent kill) (anaerobes; 180 min, 200 ppm)	ATP readings (anaerobes; [4])	Percent reduction in ATP level (percent kill) (anaerobes; 240 min, 200 ppm)	ATP readings (anaerobes; [5])	Effectiveness relative to MTC-10 on an activity percentage basis ([1]; 30 minutes and 60 minutes of exposure, Figure-3)	Performance better than Diald-25 on an activity percentage basis ([1]; 60 minutes of exposure, Figure-3)	Performance on a product percentage basis compared with Diald-25 ([1]; MCA 7.5 ppm vs Diald 25 50 ppm active, ATP after 30 and 60 minutes, Figure-2)	Performance on a product percentage basis compared with MTC-10 ([1]; MCA 7.5 ppm vs MTC-10 22 ppm active, ATP after 30 and 60 minutes, Figure-2)	Performance relative to Diald-25 on an activity percentage basis ([1]; first 30 minutes, Figure-3)	Cell penetration ([2]; compared with MTC)	Time to accomplish kill ([2]; previous testing)	Overall performance in kill study compared with MCA (anaerobes; 200 ppm, FIG. 4 / Table 1)
NCl [MCA, monochloramine]	321.4	92%	26.05	94%	19.2	95%	17.4	96%	11.9	greater than 3 ×	more than 20%	better than Diald-25	as well as MTC-10	~2 ×	better than for MTC	20 min	–
N#CSCSC#N [MTC, methylene bis(thiocyanate), reference compound]	217.3	–	–	–	–	–	16.9	0.97%	6.12	–	–	–	–	–	–	–	performed slightly better
